Experimental data taken from US20230124862A1, “BISMUTH THIOL COMPOUNDS AND COMPOSITIONS AND METHODS OF TREATING MICROBIAL CO-INFECTIONS” (Microbion Corporation, priority 2020, published 2023).
Values after ≈ are worked out from the molar mass of the structure shown. Like-named read-outs stand apart in the source and are kept apart here.

Tests used:
[1] = tested on: S. aureus ATCC 29213; test: Broth microdilution MIC (Example 12), ATCC QC organism; conditions: ATCC QC organism (Table 102)
[2] = tested on: S. aureus ATCC 29213; conditions: CLSI established QC range; cited from earlier work
[3] = tested on: vancomycin-intermediate Staphylococcus aureus (VISA); test: Broth microdilution MIC (Example 12); format: cell-based
[4] = tested on: E. coli ATCC 25922; test: MIC control strain; conditions: QC organism, Example 13
[5] = tested on: Candida spp.; conditions: C. parapsilosis MMX 2323 (ATCC 22019), cited from earlier work
[6] = tested on: Candida krusei; conditions: C. krusei ATCC 6258, CLSI established QC range, cited from earlier work
[7] = tested on: C. parapsilosis ATCC 22019; conditions: C. parapsilosis ATCC 22019, CLSI established QC range, cited from earlier work
[8] = tested on: C. parapsilosis ATCC 22019; test: Antifungal broth microdilution (Example 13), QC organism; format: cell-based, Candida parapsilosis; conditions: 24 hr, comparators, single value
[9] = tested on: Candida krusei; test: Antifungal broth microdilution (Example 13); format: cell-based; conditions: C. krusei ATCC 6258, comparators, single value
[10] = tested on: S. aureus ATCC 29213; test: MIC control strain; conditions: QC organism, Example 13
[11] = tested on: Candida spp.; test: Broth microdilution MIC (Example 11); format: cell-based, C. parapsilosis, C. albicans, C. glabrata, C. tropicalis; conditions: read-out: MIC
[12] = tested on: fungal pathogens; test: Antifungal activity, NIH/NIAID sponsored study; format: cell-based; conditions: 50% endpoint
[13] = tested on: Aspergillus spp.; test: Antifungal broth microdilution (Example 13); format: cell-based, A. niger, A. terreus, A. fumigatus, A. flavus
[14] = tested on: Gram-positive aerobic bacteria (S. aureus, MRSA, CA-MRSA); test: MIC90 against 150 clinical isolates of Gram-positive aerobic bacteria; format: cell-based; conditions: S. aureus (50 isolates)

CCC[C@@H]1C[C@@H](C(=O)N[C@@H]([C@H]2O[C@H](SC)[C@H](O)[C@@H](O)[C@H]2O)[C@H](C)Cl)N(C)C1 [CLI]
MIC [1]: 0.25 µg/mL (≈ 0.588 µM)
QC range of MIC [2]: (0.06-0.25) μg/mL
MIC ([3]; S. aureus NRS 1 (hVISA)): >8 µg/mL
MIC ([3]; S. aureus NRS 2): >8 µg/mL
MIC ([3]; S. aureus NRS 3): >8 µg/mL
MIC ([3]; S. aureus NRS 4): >8 µg/mL
MIC ([3]; S. aureus NRS 13): 0.06 µg/mL (≈ 0.141 µM)
MIC ([3]; S. aureus NRS 18): >8 µg/mL
MIC ([3]; S. aureus NRS 22): >8 µg/mL
MIC ([3]; S. aureus NRS 24 (hVISA)): >8 µg/mL
MIC ([3]; S. aureus NRS 27): >8 µg/mL

OC(Cn1cncn1)(Cn1cncn1)c1ccc(F)cc1F [Fluconazole]
MIC 24 hr [4]: >64
CLSI QC range of MIC ([5]; 24 hr): 0.5 to 4 µg/mL
CLSI QC range of MIC ([5]; 48 hr): 1 to 4 µg/mL
QC Range 24 hr ([6]; 24 hr): 8-64
QC Range 48 hr ([6]; 48 hr): 16-128
QC Range 24 hr ([7]; 24 hr): 0.5-4
QC Range 48 hr ([7]; 48 hr): 1-4
MIC 24 hr [8]: 1 µg/mL (≈ 3.27 µM)
MIC 24 hr ([9]; 24 hr): 16 µg/mL (≈ 52.2 µM)
MIC 48 hr ([9]; 48 hr): 32 µg/mL (≈ 104 µM)
MIC 24 hr [10]: >64
MIC ([11]; 24 h, C. albicans MMX 7039, Sensitive, incubation 24 hr): 0.5 µg/mL (≈ 1.63 µM)
MIC ([11]; 24 h, C. glabrata MMX 7318, FLU^R, incubation 24 hr): > 64 µg/mL
MIC ([11]; 24 h, C. parapsilosis MMX 2323 (ATCC 22019), QC, incubation 24 hr): 2 µg/mL (≈ 6.53 µM)
MIC ([11]; 24 h, C. parapsilosis MMX 7370, FLU^R, incubation 24 hr): 32 µg/mL (≈ 104 µM)
MIC ([11]; 24 h, C. tropicalis MMX 7247, FLU^R, incubation 24 hr): 64 µg/mL (≈ 209 µM)
MIC ([11]; 24 h, C. tropicalis MMX 7360, FLU^R, incubation 24 hr): 64 µg/mL (≈ 209 µM)
MIC ([11]; 48 h, C. albicans MMX 7039, Sensitive, incubation 48 hr): 0.5 µg/mL (≈ 1.63 µM)
MIC ([11]; 48 h, C. albicans MMX 7055, Sensitive, incubation 48 hr): 0.5 µg/mL (≈ 1.63 µM)
MIC ([11]; 48 h, C. glabrata MMX 7318, FLU^R, incubation 48 hr): > 64 µg/mL
MIC ([11]; 48 h, C. glabrata miX 7086, FLU^R, incubation 48 hr): 64 µg/mL (≈ 209 µM)
MIC ([11]; 48 h, C. parapsilosis MMX 2323 (ATCC 22019), QC, incubation 48 hr): 2 µg/mL (≈ 6.53 µM)
MIC ([11]; 48 h, C. parapsilosis MMX 7555, FLU^R, incubation 48 hr): 64 µg/mL (≈ 209 µM)
MIC ([11]; 48 h, C. tropicalis MMX 7247, FLU^R, incubation 48 hr): > 64 µg/mL
MIC ([11]; 48 h, C. tropicalis MMX 7248, FLU^R, incubation 48 hr): > 64 µg/mL
MIC ([11]; 48 h, C. tropicalis MMX 7360, FLU^R, incubation 48 hr): > 64 µg/mL
MIC50 ([12]; Candida albicans, read-out: Antifungal activity, MIC 50%, C. albicans CA1): ≤ 0.125 µg/mL
MIC50 ([12]; Candida albicans, read-out: Antifungal activity, MIC 50%, C. albicans CA2): ≤ 0.125 µg/mL
MIC50 ([12]; Candida albicans, read-out: Antifungal activity, MIC 50%, C. albicans CA3): > 64 µg/mL
MIC50 ([12]; Candidozyma auris, read-out: Antifungal activity, MIC 50%, C. auris Cau1): > 64 µg/mL
MIC50 ([12]; Candidozyma auris, read-out: Antifungal activity, MIC 50%, C. auris Cau2): 2 µg/mL (≈ 6.53 µM)
MIC50 ([12]; Candidozyma auris, read-out: Antifungal activity, MIC 50%, C. auris Cau3): > 64 µg/mL
MIC50 ([12]; Cryptococcus neoformans, read-out: Antifungal activity, MIC 50%, C. neoformans CN1): 64 µg/mL (≈ 209 µM)
MIC50 ([12]; Cryptococcus neoformans, read-out: Antifungal activity, MIC 50%, C. neoformans CN2): 64 µg/mL (≈ 209 µM)
MIC50 ([12]; Cryptococcus neoformans, read-out: Antifungal activity, MIC 50%, C. neoformans CN3): 2 µg/mL (≈ 6.53 µM)
MIC50 ([12]; Lodderomyces parapsilosis, ATCC22019, read-out: Antifungal activity, MIC 50%, C. parapsilosis ATCC22019): 1 µg/mL (≈ 3.27 µM)
MIC50 ([12]; Pichia kudriavzevii, ATCC6258, read-out: Antifungal activity, MIC 50%, C. krusei ATCC6258): 16 µg/mL (≈ 52.2 µM)
MIC 24 hr ([13]; A. flavus ATCC 204304): > 64 µg/mL
MIC 48 hr ([13]; A. flavus ATCC 204304): > 64 µg/mL
MIC 24 hr ([13]; A. fumigatus ATCC MYA-3626): > 64 µg/mL
MIC 48 hr ([13]; A. fumigatus ATCC MYA-3626): > 64 µg/mL

CC(=O)NC[C@H]1CN(c2ccc(N3CCOCC3)c(F)c2)C(=O)O1 [LZD]
MIC [1]: 4 µg/mL (≈ 11.9 µM)
QC range of MIC [2]: (1-4) μg/mL
MIC ([3]; S. aureus NRS 1 (hVISA)): 1 µg/mL (≈ 2.96 µM)
MIC ([3]; S. aureus NRS 2): 4 µg/mL (≈ 11.9 µM)
MIC ([3]; S. aureus NRS 3): 1 µg/mL (≈ 2.96 µM)
MIC ([3]; S. aureus NRS 4): 1 µg/mL (≈ 2.96 µM)
MIC ([3]; S. aureus NRS 13): 2 µg/mL (≈ 5.93 µM)
MIC ([3]; S. aureus NRS 18): 1 µg/mL (≈ 2.96 µM)
MIC ([3]; S. aureus NRS 22): 1 µg/mL (≈ 2.96 µM)
MIC ([3]; S. aureus NRS 24 (hVISA)): 2 µg/mL (≈ 5.93 µM)
MIC ([3]; S. aureus NRS 27): 2 µg/mL (≈ 5.93 µM)
MIC90 ([14]; CA-MRSA): 4 µg/mL (≈ 11.9 µM)
MIC90 ([14]; MRSA): 4 µg/mL (≈ 11.9 µM)
MIC90 ([14]; MSSA): 4 µg/mL (≈ 11.9 µM)

CN[C@H](CC(C)C)C(=O)N[C@H]1C(=O)N[C@@H](CC(N)=O)C(=O)N[C@H]2C(=O)N[C@H]3C(=O)N[C@H](C(=O)N[C@H](C(=O)O)c4cc(O)cc(O)c4-c4cc3ccc4O)[C@H](O)c3ccc(c(Cl)c3)Oc3cc2cc(c3O[C@@H]2O[C@H](CO)[C@@H](O)[C@H](O)[C@H]2O[C@H]2C[C@](C)(N)[C@H](O)[C@H](C)O2)Oc2ccc(cc2Cl)[C@H]1O [VAN]
MIC [1]: 0.5 µg/mL (≈ 0.345 µM)
QC range of MIC [2]: (0.5-2) μg/mL
MIC ([3]; S. aureus NRS 1 (hVISA)): 4 µg/mL (≈ 2.76 µM)
MIC ([3]; S. aureus NRS 2): 0.5 µg/mL (≈ 0.345 µM)
MIC ([3]; S. aureus NRS 3): 8 µg/mL (≈ 5.52 µM)
MIC ([3]; S. aureus NRS 4): 4 µg/mL (≈ 2.76 µM)
MIC ([3]; S. aureus NRS 13): 2 µg/mL (≈ 1.38 µM)
MIC ([3]; S. aureus NRS 18): 4 µg/mL (≈ 2.76 µM)
MIC ([3]; S. aureus NRS 22): 4 µg/mL (≈ 2.76 µM)
MIC ([3]; S. aureus NRS 24 (hVISA)): 2 µg/mL (≈ 1.38 µM)
MIC ([3]; S. aureus NRS 27): 2 µg/mL (≈ 1.38 µM)
MIC90 ([14]; CA-MRSA): 1 µg/mL (≈ 0.69 µM)
MIC90 ([14]; MRSA): 2 µg/mL (≈ 1.38 µM)
MIC90 ([14]; MSSA): 1 µg/mL (≈ 0.69 µM)
